Measured values as given in patent US20220387618A1, “METHODS OF TREATING HER2 POSITIVE BREAST CANCER WITH TUCATINIB IN COMBINATION WITH AN ANTI-HER2 ANTIBODY-DRUG CONJUGATE” (Seagen Inc., priority 2019, published 2022).

How the values were obtained:
P-gp = P-gp (Homo sapiens, UniProt P08183); conditions: concomitant use with digoxin; cited from earlier work
CTG-0708 model = assay: T-DM1-resistant HER2+ patient-derived (PDX) breast cancer model CTG-0708; assay type: in vivo, mice
Description: (§1) For these experiments, two T-DM1-resistant breast cancer tumor models were selected which scored 3+ by IHC and had metastasized to the lung. Tumor fragments were implanted subcutaneously into the flanks of immunocompromised mice. […] Each study arm was comprised of eight animals each. Tumor volume was monitored until the designated endpoint of the study. P-values were determined by t-test analysis comparing the tucatinib/T-DM1 combination to the closest single agent arm (ref brackets).

CTG-0807 model = assay: T-DM1-resistant HER2+ patient-derived (PDX) breast cancer model CTG-0807; assay type: in vivo, mice
Description: as §1

HER2 [1] = target: T1, HER2 (Homo sapiens, UniProt P04626); assay: HER2 internalization assays with fluorescently-labeled trastuzumab (AF488, QF) in SK-BR-3 cells; assay type: cell-based; conditions: tucatinib 100 nM
T1 construct: endogenous in cells; host or cells: SK-BR-3
Description: To probe the dynamics of HER2 at the cell surface upon binding to antibody therapeutics, HER2 internalization assays were conducted over the course of 72 hours. […] FIGS. 10A and 10B show the dynamics of HER2 at the cell surface upon binding to antibody therapeutics.
To probe the dynamics of HER2 at the cell surface upon binding to antibody therapeutics in the presence or absence of tucatinib (100 nM), SK-BR-3 cells were incubated with fluorescently-labeled trastuzumab to mark HER2 at the cell surface as shown in FIGS. 10A and 10B. Excess antibody was washed out. Cells were imaged at time points spanning 72 hours to observe internalization of surface-bound antibody. Concurrent experiments were conducted with trastuzumab labeled with QF […], a quenched fluor which fluoresces upon lysosomal processing and can serve as a proxy for antibody catabolism.

HER2 [2] = target: T1, HER2; assay: HER2 total protein levels by western blotting (WES system) after tucatinib treatment; assay type: cell-based; conditions: BT-474, SK-BR-3, HCC-1419, UACC-893; tucatinib 30 nM or 100 nM; 24 hours and 48 hours
Description: (§2) To assess changes to HER2 protein levels upon treatment with tucatinib, HER2-amplified breast cancer cell lines were analyzed by Western blot and quantitative FACS (qFACS). HER2 protein levels were determined for BT-474, SK-BR-3, HCC-1419, and UACC-893 after treatment with tucatinib at either 30 nM or 100 nM doses, for the duration of 24 hours and 48 hours.
HER2 protein levels were determined for BT-474, SK-BR-3, HCC-1419, and UACC-893 after treatment with tucatinib at either 30 nM or 100 nM doses, for the duration of 24 hours and 48 hours. Protein lysates were generated from cells harvested at each timepoint. HER2 total protein levels were determined by western blotting using a WES™ system, and normalized against GAPDH levels as a loading control. In all four cell lines tested, HER2 total protein levels increased after treatment with tucatinib.

[3] = system: BT-474 breast cancer cells; assay: BT-474 cell line-derived (CDX) subcutaneous xenograft model; assay type: in vivo, mice; conditions: BT-474 CDX; tucatinib 50 mg/kg orally twice daily; T-DM1 10 mg/kg IV single dose; nine animals per arm
Description: Cell line-derived (CDX) BT-474 breast cancer cells were implanted subcutaneously into the flanks of female immunocompromised mice. […] Each study arm was comprised of nine animals each. Tumor volume was monitored until the designated endpoint of the study. P-values were determined by t-test analysis comparing the tucatinib/T-DM1 combination to the closest single agent arm (ref brackets). In this model, the combination of tucatinib and T-DM1 produced three complete responses and six partial responses, while tucatinib alone generated eight partial responses, and T-DM1 alone generated nine partial responses.

HER2 [4] = target: T1, HER2; assay: Plasma membrane-associated HER2 levels by quantitative FACS (qFACS) after tucatinib treatment; assay type: cell-based; conditions: BT-474, SK-BR-3, HCC-1419, UACC-893; tucatinib 30 nM or 100 nM; 24 hours and 48 hours
Description: as §2
Cell surface levels of HER2 were determined for BT-474, SK-BR-3, HCC-1419, and UACC-893 after treatment with tucatinib at either 30 nM or 100 nM doses, for the duration of 24 hours and 48 hours. Plasma membrane-associated levels of HER2 were determined by quantitative FACS (qFACS) analysis after exclusion of dead cells. In all four cell lines tested, HER2 levels at the cell surface increased after treatment with tucatinib.

HER2+ mBC = assay: Phase 1b open-label dose-escalation study ONT-380-004 of tucatinib combined with T-DM1; assay type: in vivo, human; conditions: PO BID in combination with T-DM1 3.6 mg/kg every 21 days
Description: For subjects in the CNS disease-expansion cohorts, trastuzumab and taxane (together or separately) might have been given at any time prior to study enrollment as part of neoadjuvant therapy, adjuvant therapy, or therapy for metastatic disease.
Fifty-seven T-DM1-naive subjects were treated (Borges 2018). […] In these 50 subjects, the median PFS was 8.2 months (95% CI: 4.8, 10.3); the clinical benefit rate (CBR; subjects with best response of complete response (CR) or partial response [PR], or stable disease [SD] for >6 months) among 48 evaluable subjects was 58% (28 subjects). Thirty-four of 50 subjects (68%) treated with the MTD had measurable disease and were evaluable for response with an objective response rate (ORR) of 47% (1 subject with CR, 15 subjects with PR 14 subjects with SD, and 4 subjects with disease progression). Among the subjects whose disease responded to treatment, the median duration of response (DOR) was 6.9 months (95% CI: 2.8, 19.8).

[5] = CTG-0708 PDX, tucatinib 50 mg/kg orally twice daily, T-DM1 10 mg/kg IV single dose, eight animals per arm
[6] = CTG-0807 PDX, tucatinib 50 mg/kg orally twice daily, T-DM1 10 mg/kg IV single dose, eight animals per arm

T1 sequence (P04626 23-1255): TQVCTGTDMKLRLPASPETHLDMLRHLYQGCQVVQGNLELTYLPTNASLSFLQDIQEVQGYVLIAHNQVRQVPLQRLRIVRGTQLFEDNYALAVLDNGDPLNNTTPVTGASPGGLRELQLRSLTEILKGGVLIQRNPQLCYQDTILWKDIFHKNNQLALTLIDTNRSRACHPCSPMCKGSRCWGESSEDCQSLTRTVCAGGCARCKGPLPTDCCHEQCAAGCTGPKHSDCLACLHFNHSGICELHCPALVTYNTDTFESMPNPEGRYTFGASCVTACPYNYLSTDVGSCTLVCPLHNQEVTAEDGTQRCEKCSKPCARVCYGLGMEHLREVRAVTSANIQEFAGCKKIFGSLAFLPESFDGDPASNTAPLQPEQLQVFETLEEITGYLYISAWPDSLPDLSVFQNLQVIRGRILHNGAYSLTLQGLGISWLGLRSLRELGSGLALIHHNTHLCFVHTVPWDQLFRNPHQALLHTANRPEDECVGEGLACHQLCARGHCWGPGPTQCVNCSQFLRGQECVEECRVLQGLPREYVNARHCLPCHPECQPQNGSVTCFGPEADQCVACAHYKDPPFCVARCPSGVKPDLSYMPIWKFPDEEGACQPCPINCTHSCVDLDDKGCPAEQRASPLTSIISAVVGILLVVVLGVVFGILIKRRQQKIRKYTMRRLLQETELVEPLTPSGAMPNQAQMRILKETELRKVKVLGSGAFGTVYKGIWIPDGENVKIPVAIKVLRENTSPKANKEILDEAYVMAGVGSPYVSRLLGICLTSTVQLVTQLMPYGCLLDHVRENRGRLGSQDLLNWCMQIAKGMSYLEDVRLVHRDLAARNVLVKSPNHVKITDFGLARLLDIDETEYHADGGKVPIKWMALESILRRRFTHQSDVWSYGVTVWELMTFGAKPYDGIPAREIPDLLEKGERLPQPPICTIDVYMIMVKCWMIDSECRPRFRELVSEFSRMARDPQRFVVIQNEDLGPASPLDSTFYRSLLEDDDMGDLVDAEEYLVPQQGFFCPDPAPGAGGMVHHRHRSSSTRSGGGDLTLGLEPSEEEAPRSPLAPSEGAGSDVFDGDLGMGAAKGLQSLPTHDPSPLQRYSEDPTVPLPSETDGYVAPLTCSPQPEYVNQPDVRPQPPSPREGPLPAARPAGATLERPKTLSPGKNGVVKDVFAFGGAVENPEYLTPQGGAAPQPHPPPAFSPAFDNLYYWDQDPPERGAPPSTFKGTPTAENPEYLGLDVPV
P-gp, sequence (P08183 whole entry): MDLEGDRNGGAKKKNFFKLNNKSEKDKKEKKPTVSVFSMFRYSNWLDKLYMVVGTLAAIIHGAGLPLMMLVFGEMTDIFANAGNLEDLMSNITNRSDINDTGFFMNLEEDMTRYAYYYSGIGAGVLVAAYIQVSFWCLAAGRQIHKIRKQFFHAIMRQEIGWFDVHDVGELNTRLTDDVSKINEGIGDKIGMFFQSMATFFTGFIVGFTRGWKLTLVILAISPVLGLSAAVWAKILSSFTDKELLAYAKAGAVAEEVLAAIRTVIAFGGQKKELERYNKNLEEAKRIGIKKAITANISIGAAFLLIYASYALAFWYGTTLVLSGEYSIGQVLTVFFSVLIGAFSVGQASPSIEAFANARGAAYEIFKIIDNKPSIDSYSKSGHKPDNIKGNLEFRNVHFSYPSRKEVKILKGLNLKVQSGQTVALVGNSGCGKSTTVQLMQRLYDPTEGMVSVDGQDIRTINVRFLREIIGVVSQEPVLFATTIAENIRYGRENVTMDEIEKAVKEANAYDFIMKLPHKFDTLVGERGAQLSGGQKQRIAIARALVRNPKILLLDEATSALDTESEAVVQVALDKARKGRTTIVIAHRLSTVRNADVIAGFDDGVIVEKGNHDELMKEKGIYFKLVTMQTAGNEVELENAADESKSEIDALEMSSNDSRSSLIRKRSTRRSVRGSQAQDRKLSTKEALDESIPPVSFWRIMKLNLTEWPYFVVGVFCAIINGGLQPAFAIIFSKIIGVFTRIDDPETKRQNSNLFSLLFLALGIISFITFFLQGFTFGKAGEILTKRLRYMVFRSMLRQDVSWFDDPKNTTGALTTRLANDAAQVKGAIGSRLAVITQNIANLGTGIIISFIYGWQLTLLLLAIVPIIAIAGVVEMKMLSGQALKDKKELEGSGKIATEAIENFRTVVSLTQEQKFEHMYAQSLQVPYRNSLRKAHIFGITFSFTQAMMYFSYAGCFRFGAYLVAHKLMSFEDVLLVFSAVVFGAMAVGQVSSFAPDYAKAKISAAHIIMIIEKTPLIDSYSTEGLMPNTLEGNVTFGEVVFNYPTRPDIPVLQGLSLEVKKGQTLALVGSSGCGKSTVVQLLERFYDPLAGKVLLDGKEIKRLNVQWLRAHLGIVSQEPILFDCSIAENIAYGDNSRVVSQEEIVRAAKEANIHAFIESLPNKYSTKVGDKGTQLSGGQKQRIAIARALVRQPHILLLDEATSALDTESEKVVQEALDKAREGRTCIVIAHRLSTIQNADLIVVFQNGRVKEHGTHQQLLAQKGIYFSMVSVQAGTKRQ

Compound	effect on digoxin concentrations (drug interaction) (P-gp)	partial responses (CTG-0708 model; [5])	tumor growth / tumor control (CTG-0708 model; T-DM1 resistant PDX model CTG-0708)	partial responses (CTG-0807 model; [6])	tumor growth / tumor control (CTG-0807 model; T-DM1 resistant PDX model CTG-0807)	dwell time of HER2 at the cell surface (HER2 [1]; initial effect)	internalization and lysosomal processing of HER2 bound to trastuzumab (HER2 [1]; later timepoints, up to 72 hours)	HER2 total protein levels (normalized against GAPDH) (HER2 [2])	partial responses [3]	HER2 levels at the cell surface (HER2 [4])	maximum-tolerated dose (MTD) of tucatinib (HER2+ mBC) [mg]	complete responses (CTG-0708 model; [5])	complete responses (CTG-0807 model; [6])
Cc1cc(Nc2ncnc3ccc(NC4=NC(C)(C)CO4)cc23)ccc1Oc1ccn2ncnc2c1 [tucatinib]	increases digoxin concentrations	two	inhibited tumor growth	6	inhibited tumor growth	increased the dwell time of HER2 at the cell surface	HER2 bound to trastuzumab was internalized and directed towards lysosomes	increased	eight	increased	300	–	–
ado-trastuzumab emtansine [T-DM1, reference compound]	–	no partial or complete responses	–	no partial or complete responses	–	–	–	–	nine	–	–	no partial or complete responses	no partial or complete responses
